Laboratory results reported in patent US6713638B2, “2-amino-3-aroyl-4,5 alkylthiophenes: agonist allosteric enhancers at human A1 adenosine receptors” (priority 2001, dated 2004).

Columns and labels:
[1] = biological target: T1, hA1AR (Homo sapiens, UniProt P30542); assay: Assay of AE (allosteric enhancer) activity: slowing of 125I-ABA dissociation from the A1AR-G protein ternary complex; type: binding; settings: CHO-K1 membranes; for AE Score, %: 0.1 mM final AE, specifically bound 125I-ABA remaining after 10 minutes of dissociation, Mean ± SEM (N = 3); for AE activity (in words): hA1AR
T1 construct: expressed in transfected cells; membranes
T1 sequence (P30542 1-326): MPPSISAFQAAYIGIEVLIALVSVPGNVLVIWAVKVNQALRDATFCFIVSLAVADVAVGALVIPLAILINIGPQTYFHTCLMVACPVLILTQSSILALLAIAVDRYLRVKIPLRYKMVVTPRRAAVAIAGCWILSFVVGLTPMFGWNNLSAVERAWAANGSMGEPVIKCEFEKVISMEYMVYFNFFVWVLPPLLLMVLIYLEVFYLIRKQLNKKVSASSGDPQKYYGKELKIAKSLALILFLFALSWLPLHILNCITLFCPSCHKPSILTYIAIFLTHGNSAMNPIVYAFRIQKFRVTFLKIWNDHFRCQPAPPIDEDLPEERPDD
From the text: The allosteric enhancer (AE) activity was studied at the human A1AR (hA1AR) of a panel of compounds consisting of nine 2-amino-3-aroylthiophenes, (3a-i), eight 2-amino-3-benzoyl-4,5-dimethylthiophenes (13a-h), […] 3-aroyl-2-carboxy-4,5-dimethylthiophenes, (17a-e), ten 2-amino-3-benzoyl-5,6-ihydro-4H-cyclopenta[b]thiophenes, (19a-I), fourteen 2-amino-3-benzoyl-4,5,6,7-tetrahyd robenzo-[b]thiophenes, (20a-n), and fifteen 2-amino-3-benzoyl-5,6,7,8-tetrahydro-4H-cyclohepta[b]thiophenes, (21a-o). An in vitro assay employing the A1AR agonist ^125I-N^6-aminobenzyladenosine (^125I-ABA) and membranes from CHO-K1 cells stably expressing the hA1AR measured, as an index of AE activity, the ability of a candidate AE to slow the dissociation of the radioligand from the A1AR-G protein ternary complex.
The assay of AE activity consisted of three phases: formation of the ^125I-ABA-A1AR-G protein ternary complex; binding of the AE to the allosteric site, and dissociation of the complex by adding a combination of an A1AR antagonist (100 μM cyclopentyltheophylline) and 50 µM GTPγS. This procedure detects only AE activity since phase 3 (dissociation) is affected only by the allosteric activity of the test compound and is not affected by competitive antagonist activity. GTPγS is added to accelerate the dissociation process. […] The assay employed membranes from CHO-K1 cells stably expressing the hA1AR. For agonist binding to equilibrium, the incubation mixture consisted of 10 mM HEPES, pH 7.2, containing 0.5 mM MgCl2, 1 U/mL adenosine deaminase, 0.5 nM ^125I-ABA and 10 μg of membrane protein in a final volume of 100 μL. This phase of the assay was allowed to proceed to equilibrium (>90 minutes) at room temperature. At that point phase 2 was initiated by adding 50 μL of a 0.3 mM solution (0.1 mM final) of a candidate AE or DMSO vehicle to rapidly occupy the allosteric site. Stock solutions of AEs (10 mM) were prepared in DMSO. Five minutes later phase 3 was initiated by the addition of 50 μL of a solution containing 400 μM 8-cyclopentyltheophylline and 200 μM GTPγS. Ten minutes later, residual radioligand bound to Aireceptors was trapped on Whatman GF/C glass fiber filters using a Brandel cell harvester, washed 3 times over a 20 second interval and counted in a γ-counter. The percentage of specifically bound agonist remaining after 10 minutes of dissociation was used to calculate the “score” of AE activity:
AE activity score=100×(B−Bo)/(Beq−Bo)
Where B=residual binding (cpm) bound at the end of 10 minutes of dissociation in the presence of an AE, Bo=residual binding (cpm) at the end of 10 minutes of dissociation in the absence of an AE, and Beq=cpm bound at the end of phase 2. A compound with no AE activity has a score of 0 in this assay. An AE which completely arrests agonist dissociation will have a score of 100.

[2] = biological target: T2, A1AR (Homo sapiens, UniProt P30542); assay: A1AR antagonistic activity: competition with equilibrium binding of [3H]CPX; settings: for inhibition at 100 µM / Antagonist activity, % (% inhibition of specific equilibrium binding of [3H]8-cyclopentyl-1,3-dipropylxanthine): N = 3, 100 μM; for inhibition at 100 µM: read-out: Antagonist activity, % (% inhibition of specific equilibrium binding of [3H]8-cyclopentyl-1,3-dipropylxanthine)
T2 sequence (P30542 1-326): T1 sequence (P30542 1-326)
From the text: Several of the candidate AEs had substantial antagonistic activity. However, the AE and antagonist activities are unrelated (r^2=0.057, n=28).

[3] = system: adenosine A1 receptors; settings: background statement, cited from earlier work

SMILES: Nc1sccc1C(=O)c1ccccc1 [Compound 3a, 2-Amino-3-benzoylthiophene]
- AE Score, % [1]: 0.2 ± 0.01%
- inhibition at 100 µM [2]: 24%
- melting point: 147 °C

SMILES: NC1SC2=CCCC2=C1C(=O)c1cccc(Br)c1 (stereo not shown) [Compound 19d, 2-Amino-3-(3-bromobenzoyl)-4,5-dihydrocyclopenta[b]thiophene]
- AE Score, % [1]: 13 ± 3%
- inhibition at 100 µM [2]: 76%
- melting point: 202 °C

SMILES: Nc1sc2c(c1C(=O)c1ccc(-c3ccccc3)cc1)CCCC2 [Compound 20l, 2-Amino-3-(4-phenylbenzoyl)-4,5,6,7-tetrahydrobenzo[b]thiophene]
- AE Score, % [1]: 33 ± 2%
- AE activity (in words) [1]: excellent activity
- melting point: 110 °C

SMILES: Nc1sc2c(c1C(=O)c1ccccc1)CCCCC2 [Compound 21b]
- AE Score, % [1]: 13 ± 3.8%
- Antagonist activity, % (% inhibition of specific equilibrium binding of [3H]8-cyclopentyl-1,3-dipropylxanthine) [2]: 0%

SMILES: Nc1sc2c(c1C(=O)c1cccc(Cl)c1)CCCCC2 [Compound 21c]
- AE Score, % [1]: 65 ± 8%
- Antagonist activity, % (% inhibition of specific equilibrium binding of [3H]8-cyclopentyl-1,3-dipropylxanthine) [2]: 9%

SMILES: Nc1sc2c(c1C(=O)c1cccc(Br)c1)CCCCC2 [Compound 21d]
- AE Score, % [1]: 78 ± 2.6%
- Antagonist activity, % (% inhibition of specific equilibrium binding of [3H]8-cyclopentyl-1,3-dipropylxanthine) [2]: 12%

SMILES: Nc1sc2c(c1C(=O)c1ccc(Br)cc1)CCCCC2 [Compound 21h]
- AE Score, % [1]: 86 ± 3.8%
- AE activity (in words) [1]: very high AE activity
- Antagonist activity, % (% inhibition of specific equilibrium binding of [3H]8-cyclopentyl-1,3-dipropylxanthine) [2]: 12%
- antagonist activity (in words) ([2]; at 100 μM): nearly devoid of antagonist activity

SMILES: Nc1sc2c(c1C(=O)c1ccc(I)cc1)CCCCC2 [Compound 21i]
- AE Score, % [1]: 96 ± 4.7%
- Antagonist activity, % (% inhibition of specific equilibrium binding of [3H]8-cyclopentyl-1,3-dipropylxanthine) [2]: 11%

SMILES: COc1cccc(C(=O)c2c(N)sc3c2CCCCC3)c1 [Compound 21j]
- AE Score, % [1]: 99 ± 3.1%
- Antagonist activity, % (% inhibition of specific equilibrium binding of [3H]8-cyclopentyl-1,3-dipropylxanthine) [2]: 19%

SMILES: Cc1sc(N)c(C(=O)c2cccc(C(F)(F)F)c2)c1C [PD 81,723]
- enhancement at A1 receptors [3]: enhancement at A1 receptors of all species tested to date
- selectivity for adenosine A1 receptors ([3]; other adenosine receptor subtypes, other classes of receptors): no effects on other adenosine receptor subtypes or on other classes of receptors
